The subject of assay [1] is colon cancer CN1572P5 PDX. Nature of the assay: Tumor growth of colon cancer CN1572P5 PDX in non-HLA matched Hu-CD34 NSG mice. Format: in vivo, mouse. The following applies: tumor growth curves over 21 days; 5-FU i.v. about 20 mg/kg Q7dx2; Avastin i.p. about 10 mg/kg twice a week, 5 doses. The method, then:
To test whether the subject Hu-CD34 NSG™ mice with non-HLA matched PDX can be used to evaluate drug efficacy against the PDX, using clinically relevant standard-of-care (SOC) treatments, tumor growth curves over 21 days were obtained for a negative control/vehicle group, and two treatment groups using 5-FU and Avastin, respectively, against the colon cancer CN1572P5 PDX. Specifically, 5-FU was administered i.v. at a dose of about 20 mg/kg body weight, Q7d×2 (every 7 days, 2 total doses). Avastin was administered i.p. at a dose of about 10 mg/kg body weight, twice a week, 5 total doses. Vehicle (D5W) was administered i.v., Q7d×3.

The subject of assay [2] is breast cancer cell line MDA-MB-231. Nature of the assay: Tumor growth of PD-L1+ MDA-MB-231 breast cancer model in non-HLA matched Hu-CD34 NSG mice. Format: in vivo, mouse. The settings on record: for tumor growth of MDA-MB-231 tumors: growth curves over 21 days, cisplatin i.v. about 2 mg/kg Q7dx2. The method, then: First, to determine if the checkpoint inhibitor pembrolizumab (Keytruda) is efficacious in the subject non-HLA matched PDX humanized NSG model, a PDX huNSG model was established according to the methods of the invention. […] This cell line expresses very high levels of PD-L1 on the tumor cell surface that can bind to PD-1 on T-cells and induce anergy—about 94.3% of the MDA-MB-231 cells expressed PD-L1. The tumor-engrafted humanized NSG mice were then treated either with vehicle, Cisplatin, or Prembrolizumab (Keytruda).
Tumor growth curves over 21 days were obtained for a negative control/vehicle group, and two treatment groups using cisplatin and pembrolizumab (Keytruda), respectively, against the MDA-MB-231 PDX. Specifically, cisplatin was administered i.v. at a dose of about 2 mg/kg body weight, Q7d×2 (every 7 days, 2 total doses). Pembrolizumab (Keytruda) was administered i.p. at a dose of about 5-10 mg/kg body weight, Q5d×4 (every 5 days, 4 total doses). Vehicle (Saline) was administered i.p., Q5d×4.
At the termination of the growth study, peripheral blood of the experimental mice were collected and assayed for human CD19^+ B cells and human CD4^+ and CD8^+ T-cells.
Tumors were also collected and assayed for human CD4^+ and CD8^+ infiltrating T-cells.

A further assay relates to breast cancer BR1126 PDX. In words: Tumor growth of PD-L1+ TNBC BR1126 breast cancer PDX in non-HLA matched Hu-CD34 NSG mice. Format: in vivo, mouse. The following applies: for tumor growth compared to the vehicle control: growth curves over 21 days, cisplatin i.v. about 2 mg/kg Q7dx3, Keytruda i.p. about 5-10 mg/kg Q5dx4. The method, then: Specifically, humanized NSG mice were engrafted with 5×10^6 of non-HLA matched PD-L1-positive breast cancer cell line BR1126 cells per mouse via s.c. inoculation. This can be done with the presence of matrigel. About 56.9% of the BR1126 cells expressed PD-L1.
Tumor growth curves over 21 days were obtained for a negative control/vehicle group, and two treatment groups using cisplatin and pembrolizumab (Keytruda), respectively, against the BR1126 PDX. Specifically, cisplatin was administered i.v. at a dose of about 2 mg/kg body weight, Q7d×3 (every 7 days, 3 total doses). Pembrolizumab (Keytruda) was administered i.p. at a dose of about 5-10 mg/kg body weight, Q5d×4 (every 5 days, 4 total doses). Vehicle (Saline) was administered i.p., Q5d×4.
Tumors from the Keytruda-treated mice were collected at the end of the study and examined for lymphocyte infiltration.

In assay [3] the test system is CD45+CD8+ infiltrating T lymphocytes in PDX tumor samples. In words: Immuno-staining of treated PDX tumor samples for CD45+CD8+ infiltrating T lymphocytes. Format: in vivo, mouse. The settings on record: compared to chemotherapy alone. The method, then:
In a similar experiment, immuno-staining was conducted on PDX tumor samples treated by chemotherapy alone, anti-PD1 agent Keytruda, and anti-CTLA4 agent ipilimumab, for the presence of CD45^+CD8^+ infiltrating T lymphocytes.

For the next assay, the system named is lung cancer LG1306 PDX. In words: Tumor growth of PD-L1+ LG1306 lung cancer PDX in non-HLA matched Hu-CD34 NSG mice. Format: in vivo, mouse. The method, then:
Specifically, humanized NSG mice were engrafted with 5×10^6 of non-HLA matched PD-L1-positive PDX lung cancer cell line LG1306 per mouse. About 89.1% of the LG1306 cells expressed PD-L1.
Tumor growth curves over 24 days were obtained for a negative control/vehicle group, and two treatment groups using pembrolizumab (Keytruda), with or without the anti-mitotic chemotherapeutic agent Decotaxol, against the LG1306 PDX. Specifically, Decetaxol, when present, was administered i.v. at a dose of about 10 mg/kg body weight, Q7d×4 (every 7 days, 4 total doses). Pembrolizumab (Keytruda) was administered i.p. at a dose of about 5 mg/kg body weight, Q5d×6 (every 5 days, 6 total doses). Vehicle (Saline) was administered i.p., Q5d×6.

Assay [4] has as its system non-small-cell lung cancer, melanoma, and renal-cell cancer. The following applies: 296 patients; cited from earlier work.
[5] abbreviates: Keytruda i.p. about 5-10 mg/kg Q5dx4.

Entries after “also recorded” stand apart in the source; their conditions may differ.

Take `O=c1[nH]cc(F)c(=O)[nH]1` [5-FU]: the “efficacy against the non-HLA matched colon cancer PDX (tumor volume)” value in assay [1] is “effective”.

`N.N.[Cl][Pt][Cl]` [Cisplatin, cisplatin]: the “tumor growth of MDA-MB-231 tumors” value in assay [2] (setting [5]) is on record as “only marginally reduced the growth rate”. Further, the “tumor growth compared to the vehicle control” value in the assay on breast cancer BR1126 PDX is recorded as “significantly reduced tumor growth”.

Consider “Avastin: clinically relevant standard-of-care (SOC) anti-cancer drug”, for which the “efficacy against the non-HLA matched colon cancer PDX (tumor volume)” value in assay [1] is “effective”.

Consider “Keytruda: anti-PD-1 antibody drug; highly selective, humanized IgG4-kappa monoclonal antibody against PD-1”, for which, in assay [2] (setting [5]), the “time after start of treatment to significant tumor growth delay” value is not above 2 weeks and the “tumor growth of MDA-MB-231 tumors” value was “delayed tumor growth significantly”. The “human T and B cells in peripheral blood and infiltrating T cells (TILs) in tumors versus other treatment groups” value in assay [2] (at termination of the growth study) is “absence of additional TILs”. In addition, in assay [3], the “presence of CD45+CD8+ infiltrating T lymphocytes in PDX tumor samples” value is reported as “strong presence”. Moreover, the mice not responding result with lung cancer LG1306 PDX (Keytruda alone) is listed as “one of 10”. For the same molecule, the “tumor growth of LG1306 PDX compared to vehicle-treated controls” value with lung cancer LG1306 PDX (growth curves over 24 days, Keytruda i.p. about 5 mg/kg Q5dx6, Docetaxel i.v. about 10 mg/kg Q7dx4, all mice) is on record as “reduced growth; also recorded: effective”. In the assay with lung cancer LG1306 PDX (one Keytruda non-responder excluded), the “tumor growth, non-responding mouse taken out of the calculations” value was “significant decrease in tumor growth”. Besides, in the assay on breast cancer BR1126 PDX, the “tumor growth compared to the vehicle control” value is on record as “significantly reduced tumor growth”. Besides, the “tumor lymphocyte infiltration compared to the vehicle treated mice” value with breast cancer BR1126 PDX (tumors collected at the end of the study) was “did not increase tumor infiltration”.

Consider “ipilimumab: anti-CTLA4 agent; FDA-approved CTLA-4 inhibitor for treating melanoma”, for which the “presence of CD45+CD8+ infiltrating T lymphocytes in PDX tumor samples” value in assay [3] is listed as “strong presence”.

For “nivolumab: fully human IgG4 monoclonal antibody against PD-1”, the clinical response entry in assay [4] was “complete or partial responses”.

Values taken from patent publication US12577584B2, “Non-HLA matched humanized NSG mouse model with patient-derived xenograft” (The Jackson Laboratory, priority 2015, dated 2026).
